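Tested at 5 concentrations; 48 h exposure; 96-well plates; endpoints linearly interpolated, else capped at highest concentration. Abbreviation: GI50, concentration required for 50% inhibition of growth.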 Calls of active or inactive are those of the source. Cut-off read from the data, not from the text of the source: active = GI50 up to about 1.1 µM and inactive = higher.
How the values were obtained:
Assay in all cases: growth of human tumour cells (NCI), 48 h
EKVX = test system: EKVX
MOLT-4 = test system: MOLT-4
UACC-62 = test system: UACC-62
SNB-75 = test system: SNB-75
U-251 = test system: U-251
HCT-15 = test system: HCT-15
UACC-257 = test system: UACC-257
HCC 2998 = test system: HCC 2998
NCI-H23 = test system: NCI-H23
A549 = test system: A549
K562 = test system: K562
OVCAR-5 = test system: OVCAR-5
SK-MEL-28 = test system: SK-MEL-28
NCI-H522 = test system: NCI-H522
Malme-3M = test system: Malme-3M
HCT-116 = test system: HCT-116
CAKI-1 = test system: CAKI-1
RPMI-8226 = test system: RPMI-8226
MDA-MB-231 = test system: MDA-MB-231

Structure (SMILES)	GI50 (EKVX)	GI50 (MOLT-4)	GI50 (UACC-62)	GI50 (SNB-75)	GI50 (U-251)	GI50 (HCT-15)	GI50 (UACC-257)	GI50 (HCC 2998)	GI50 (NCI-H23)	GI50 (A549)	GI50 (K562)	GI50 (OVCAR-5)	GI50 (SK-MEL-28)	GI50 (NCI-H522)	GI50 (Malme-3M)	GI50 (HCT-116)	GI50 (CAKI-1)	GI50 (RPMI-8226)	GI50 (MDA-MB-231)
CC1C(=O)OC2CC[N+]3(CC(=O)c4ccc(Br)cc4)CC=C(COC(=O)C(C)(O)C1(C)O)C23 (stereo unspecified)	> 375 µM (inactive)	> 375 µM (inactive)	> 375 µM (inactive)	> 375 µM (inactive)	> 375 µM (inactive)	> 375 µM	> 375 µM (inactive)	> 375 µM (inactive)	> 375 µM (inactive)	> 375 µM (inactive)	> 375 µM (inactive)	> 375 µM (inactive)	> 375 µM (inactive)	> 375 µM (inactive)	> 375 µM (inactive)	> 375 µM (inactive)	> 375 µM (inactive)	> 375 µM (inactive)	
Cc1ccc(N(C(=O)CC(=O)NN)C(=O)c2ccccc2Cl)cc1	> 100 µM (inactive)	> 100 µM (inactive)	> 100 µM (inactive)	> 100 µM (inactive)	> 100 µM (inactive)	> 100 µM	> 100 µM (inactive)	> 100 µM (inactive)	> 100 µM (inactive)	> 100 µM (inactive)	> 100 µM (inactive)	> 100 µM (inactive)	> 100 µM (inactive)	> 100 µM (inactive)	> 100 µM (inactive)	> 100 µM (inactive)	> 100 µM (inactive)	> 100 µM (inactive)	
CCC(O)(c1ccc(OC)cc1)C(c1ccc(OCc2ccccc2)cc1)c1ccc(OCc2ccccc2)cc1 (stereo unspecified)	> 100 µM (inactive)	> 100 µM (inactive)	> 100 µM (inactive)	> 100 µM (inactive)	> 100 µM (inactive)	> 100 µM	> 100 µM (inactive)	> 100 µM (inactive)	> 100 µM (inactive)	> 100 µM (inactive)	> 100 µM (inactive)	> 100 µM (inactive)	> 100 µM (inactive)	> 100 µM (inactive)	> 100 µM (inactive)	> 100 µM (inactive)	> 100 µM (inactive)	> 100 µM (inactive)	
O=C1c2ccccc2C(=O)c2sc(Nc3ccc(Cl)cc3)nc21	5.77 µM (inactive)	0.762 µM (active)	1.85 µM (inactive)	8.41 µM (inactive)	1.62 µM (inactive)	1.8 µM	1.75 µM (inactive)	4.32 µM (inactive)	1.55 µM (inactive)	8.63 µM (inactive)	1.96 µM (inactive)	5.13 µM (inactive)	1.66 µM (inactive)	1.61 µM (inactive)	1.96 µM (inactive)	1.64 µM (inactive)	1.99 µM (inactive)	1.38 µM (inactive)	
Brc1c2nc3ccccc3nc2n2ccc3ccccc3c12	> 100 µM (inactive)	> 100 µM (inactive)	> 100 µM (inactive)	> 100 µM (inactive)	> 100 µM (inactive)	> 100 µM	> 100 µM (inactive)	> 100 µM (inactive)	> 100 µM (inactive)	> 100 µM (inactive)	> 100 µM (inactive)	> 100 µM (inactive)	> 100 µM (inactive)	69.5 µM (inactive)	> 100 µM (inactive)	> 100 µM (inactive)	> 100 µM (inactive)	> 100 µM (inactive)	
CC(=O)c1ccc(N2CCN(C3=C(Cl)C(=O)c4c(O)ccc(O)c4C3=O)CC2)cc1	18.7 µM (inactive)	1.68 µM (inactive)	2.74 µM (inactive)	12.7 µM (inactive)	3.4 µM (inactive)	8.79 µM	7.6 µM (inactive)	15.6 µM (inactive)	2.92 µM (inactive)	17.5 µM (inactive)	2.09 µM (inactive)	18.9 µM (inactive)	5.21 µM (inactive)		11.4 µM (inactive)	3.5 µM (inactive)	4.89 µM (inactive)	2.86 µM (inactive)	2.51 µM (inactive)
CC1=Nc2c(ccc3c2C(=O)c2ccccc2C3=O)NC(c2ccncc2)C1 (stereo unspecified)	> 10 µM (inactive)	3.73 µM (inactive)	62.4 µM (inactive)	5.96 µM (inactive)	> 10 µM (inactive)	9.93 µM	> 10 µM (inactive)	> 10 µM (inactive)	> 10 µM (inactive)	13.3 µM (inactive)	> 100 µM (inactive)	95.1 µM (inactive)	> 10 µM (inactive)	6.82 µM (inactive)	> 10 µM (inactive)	41.5 µM (inactive)	7.98 µM (inactive)	4.84 µM (inactive)	
O=C(N/C(=C\c1cccc([N+](=O)[O-])c1)c1nc2c(O)nc(S)nc2[nH]1)c1ccccc1	> 100 µM (inactive)	94.4 µM (inactive)	> 100 µM (inactive)	> 100 µM (inactive)	> 100 µM (inactive)	> 100 µM	> 100 µM (inactive)	> 100 µM (inactive)	> 100 µM (inactive)	> 100 µM (inactive)	> 100 µM (inactive)	> 100 µM (inactive)	> 100 µM (inactive)	66.8 µM (inactive)	> 100 µM (inactive)	> 100 µM (inactive)	> 100 µM (inactive)	97.1 µM (inactive)	
COC(=O)C(Cc1nc2ccc(Cl)cc2nc1O)C(=O)C(=O)Nc1ccccc1[N+](=O)[O-] (stereo unspecified)	7.8 µM (inactive)	> 100 µM (inactive)	> 100 µM (inactive)	> 100 µM (inactive)	> 100 µM (inactive)	> 100 µM	> 100 µM (inactive)	> 100 µM (inactive)	> 100 µM (inactive)	> 100 µM (inactive)	> 100 µM (inactive)	> 100 µM (inactive)	> 100 µM (inactive)	> 100 µM (inactive)	> 100 µM (inactive)	> 100 µM (inactive)	> 100 µM (inactive)	> 100 µM (inactive)	
C=CCC1(CN(C)C)CC/C(=C\c2ccc3c(c2)OCO3)C1=O (stereo unspecified)	18.1 µM (inactive)	27.3 µM (inactive)	68.4 µM (inactive)	> 100 µM (inactive)	52.1 µM (inactive)	39.4 µM	40.7 µM (inactive)	37.3 µM (inactive)	65.8 µM (inactive)	74.1 µM (inactive)	32.7 µM (inactive)	> 100 µM (inactive)	> 100 µM (inactive)	17.9 µM (inactive)	> 100 µM (inactive)	43.6 µM (inactive)	68.5 µM (inactive)	24.3 µM (inactive)	
CCCOc1nc(N)c2cnn(C3CCCCO3)c2n1 (stereo unspecified)	> 100 µM (inactive)	> 100 µM (inactive)	> 100 µM (inactive)	56.8 µM (inactive)	> 100 µM (inactive)	> 100 µM	> 100 µM (inactive)	> 100 µM (inactive)	> 100 µM (inactive)	> 100 µM (inactive)	> 100 µM (inactive)	> 100 µM (inactive)	> 100 µM (inactive)	> 100 µM (inactive)	> 100 µM (inactive)	> 100 µM (inactive)	> 100 µM (inactive)	> 100 µM (inactive)	
OCC(O)COc1c(Cl)cc(Cl)cc1Cl (stereo unspecified)	> 100 µM (inactive)	> 31.6 µM (inactive)	> 100 µM (inactive)	> 100 µM (inactive)	> 100 µM (inactive)	> 100 µM	> 100 µM (inactive)	> 100 µM (inactive)	> 57.4 µM (inactive)	> 100 µM (inactive)	> 46.6 µM (inactive)	> 100 µM (inactive)	> 100 µM (inactive)	> 100 µM (inactive)	> 100 µM (inactive)	> 74.3 µM (inactive)	> 100 µM (inactive)	> 44.9 µM (inactive)	
O/N=C1/CCCc2nonc21	> 100 µM (inactive)	> 100 µM (inactive)	> 100 µM (inactive)	> 100 µM (inactive)	> 100 µM (inactive)	> 100 µM	> 100 µM (inactive)	> 100 µM (inactive)	> 100 µM (inactive)	> 100 µM (inactive)	> 100 µM (inactive)	> 100 µM (inactive)	> 100 µM (inactive)		> 100 µM (inactive)	> 100 µM (inactive)	> 100 µM (inactive)	> 100 µM (inactive)	> 100 µM (inactive)
COc1ccccc1N1CCN(CCCNC(=O)c2cc(Cl)c(N)c(Cl)c2)CC1	> 100 µM (inactive)	19.8 µM (inactive)	35 µM (inactive)	59.3 µM (inactive)	27 µM (inactive)	18.5 µM	22.8 µM (inactive)	21.5 µM (inactive)	49.7 µM (inactive)	61.9 µM (inactive)		44.6 µM (inactive)	32.4 µM (inactive)		18.8 µM (inactive)	31 µM (inactive)		18.7 µM (inactive)	22.9 µM (inactive)
COc1cc2c[n+](C)c3c4cc(OC)c(OC(C)C)cc4ccc3c2cc1OC	> 100 µM (inactive)	50.5 µM (inactive)	37.3 µM (inactive)	44.9 µM (inactive)	29.6 µM (inactive)	> 100 µM	29.4 µM (inactive)	44.2 µM (inactive)	48.6 µM (inactive)	77.6 µM (inactive)	32.3 µM (inactive)	69.7 µM (inactive)	57.7 µM (inactive)	16.9 µM (inactive)	29.4 µM (inactive)	> 100 µM (inactive)	> 100 µM (inactive)	36.2 µM (inactive)	
Cc1ccccc1C(C#N)C(=O)C(=O)Nc1cccc(Cl)c1 (stereo unspecified)	> 100 µM (inactive)	> 100 µM (inactive)	> 100 µM (inactive)	> 100 µM (inactive)	> 100 µM (inactive)	> 100 µM	> 100 µM (inactive)	> 100 µM (inactive)	> 100 µM (inactive)	> 100 µM (inactive)	32.2 µM (inactive)	> 100 µM (inactive)	> 100 µM (inactive)	58.5 µM (inactive)	> 100 µM (inactive)	> 100 µM (inactive)	> 100 µM (inactive)	27.2 µM (inactive)	

From ChEMBL document CHEMBL1201862, “PubChem BioAssay data set” (2004)
